{"source": "patent US20040138204A1", "about": "“Compositions and methods for pain reduction” (priority 2002, published 2004)", "key": {"[1]": {"tested_on": "rat hind paw withdrawal (nociception)", "test": "Von Frey fiber behavioral test after epidural glutamate infusion", "assay_type": "in vivo", "settings": "epidural infusion 2.0-0.0002 mM for 72 hours; most prominent on day 3, also day 1", "description": "Behavioral experiments have been completed at a wider range of concentrations. Rats are infused with epludial glutamate at concentrations of 2.0, 0.2, 0.02, 0.002 and 0.0002 mM for 72 hours (3 days). Von Frey fiber examinations were performed on left and right hind paws 24 hours before infusion and then 24, 72, and 144 hours after onset of glutamate infusion. The experimenter was blinded as to which infusate was used. Contralateral to ipsilateral differences were analyzed with respect to concentration of glutamate infusion and hours post-procedure. […] The response was most significant at the 0.02 mM concentration but present at 0.002 and 0.2 mM concentrations. […]\nBehavioral Tests—The von Frey Fiber mechanical allodynia assay is performed 24 hours preoperatively and 24, 72, and 144 hours postoperatively. […] Starting with 0.6 grams of force and working up to 1, 1.4, 2, 4, 6, 8, 10, 15, and finally 26, each paw's response is recorded. […]\nThe protocol has the experimenter tap the bottom surface of the paw with one fiber at a time for six seconds each. […] If a response is not recognized, then the next fiber (one that elicited 1.0 grams of force) is applied, and so on in increasing order of force until a paw withdrawal response was recorded. After the initial response is recorded, the experimenter completes the testing procedure by testing the same paw with fibers in descending order of force. […]"}, "[2]": {"tested_on": "AMPA, NMDA and kainate receptors, dorsal horn laminae I-III", "test": "Immunohistochemistry and densitometry of dorsal horn glutamate receptor expression after epidural glutamate infusion", "assay_type": "in vivo, rat", "description": "Immunohistochemical studies show expression of dorsal horn glutamate receptors in painful conditions involving the lower extremity in the rat. A relatively high concentration (2 mmol/L) of glutamate was infused for 72 hours (same infusion time period as in previous experiments) and densitometry was performed at 40× AMPA, NMDA and kainate for receptor expression at dorsal horn laminae I-III bilaterally, at spinal cord levels where the dorsal root ganglion input would enter the spinal cord dorsal horn, to determine whether receptor expression was increased. The microscopist was blinded to the nature of the sample."}, "[3]": {"settings": "2 mmol/L glutamate, 72 hours, p<0.01"}}}
{"smiles": "N[C@@H](CCC(=O)O)C(=O)O", "note": "[glutamate]", "values": [{"measurement": "von Frey contralateral to ipsilateral difference (hypersensitivity)", "setting": "[1]", "result": "significant hypersensitivity postoperatively"}, {"measurement": "AMPA, NMDA and kainate receptor expression versus saline-infused controls", "setting": "[2]; 2 mmol/L glutamate infused for 72 hours, dorsal horn laminae I-III, two-tailed T test", "result": "upregulation of expression over saline-infused controls"}, {"measurement": "AMPA receptor expression ipsilateral versus contralateral", "setting": "[2]; [3]", "result": "upregulation of receptor expression ipsilateral to the side of infusion"}, {"measurement": "NMDA receptor expression ipsilateral versus contralateral", "setting": "[2]; [3]", "result": "upregulation of receptor expression ipsilateral to the side of infusion"}, {"measurement": "kainate receptor expression ipsilateral versus contralateral", "setting": "[2]; 2 mmol/L glutamate, 72 hours, p<0.05", "result": "upregulation of receptor expression ipsilateral to the side of infusion"}]}
